The values that follow come from PubChem BioAssay (NCI).

SMILES strings stand for the structures.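 How tested: cells in 96-well plates exposed to compound for 48 hours at five concentrations. GI50: concentration for 50% inhibition of growth. TGI is the concentration that stops growth completely.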

Assay in all cases: growth of human tumour cells (NCI), 48 h
The test system of assay [1] is MDA-MB-435.
Assay [2] relates to SN12C renal.
Assay [3] has as its system SF-268 CNS.
Assay [4] concerns UACC-62 melanoma.
Assay [5] has as its system 786-0 renal.
In assay [6] the test system is NCI-H460 lung.
The subject of assay [7] is COLO 205 colon.
Assay [8] has as its system DU-145 prostate.
Assay [9] has as its system T-47D breast.
Assay [10] relates to IGROV1 ovarian.

Take `COc1ccc(/C=C/C(=O)c2ccc(NC(=O)CSc3nnc(-c4cc(OC)c(OC)c(OC)c4)o3)cc2)cc1`: the GI50 in assay [1] was 1.7 µM; in assay [2], 1.83 µM; in [3], 1.79 µM; in [4], 1.73 µM; in assay [5], 1.7 µM; in assay [6], 2 µM. Further, the GI50 in [7] was 1.94 µM; in assay [8], 1.75 µM; in assay [9], 2.05 µM. Moreover, the TGI is 3.4 µM in [1]; 3.57 µM in assay [2]; 3.96 µM in assay [3]; 3.43 µM in assay [4]; 3.36 µM in assay [5]; 3.85 µM in [6]. Besides, the TGI in [7] was 3.84 µM; in [8], 3.21 µM; in [9], 5.08 µM.

As to `C[C@H]1[C@H](C)CC[C@]2(C(=O)O)CC[C@]3(C)C(=CC[C@@H]4[C@@]5(C)CC[C@H](OC(=O)/C=C\c6ccc(O)cc6)C(C)(C)[C@@H]5CC[C@]43C)[C@H]12`, the GI50 in assay [1] is 4.24 µM; in assay [2], 1.67 µM; in [3], 3.23 µM; in [4], 10.9 µM; in [5], 3.22 µM; in assay [10], 15.5 µM. Further, the figures for the GI50 in assay [6], in [7] and in assay [8] were 2.23 µM, 3.85 µM and 4.07 µM, respectively. Besides, the TGI in assay [1] is 42.4 µM; in assay [2], 6.76 µM; in [3] it was 14.8 µM; in assay [4] it was 22.8 µM; in assay [5] it was 16 µM; in [10], above 100 µM. The TGI worked out at 10.9 µM in [6], 14.8 µM in [7] and 17.6 µM in assay [8].

`CC1=C(C(=O)Nc2ccc(Cl)c(Cl)c2)C(c2cccc(O)c2)NC(=S)N1` (configuration not stated): the GI50 is 9.16 µM in [1]; 8.66 µM in assay [2]; 8.35 µM in [3]; 7.09 µM in assay [4]; 9.47 µM in assay [5]; 12.8 µM in assay [10]. Further, the GI50 in [6] was 13.5 µM; in assay [7], 7.09 µM; in assay [8], 7.28 µM. The TGI worked out at 18.5 µM in assay [1]; 20.1 µM in assay [2]; 17 µM in assay [3]; 14.7 µM in [4]; 20 µM in [5]; 44.2 µM in assay [10]. Also, the TGI in assay [6] was 21.4 µM; in assay [7] it was 14.6 µM; in assay [8], 14.5 µM.

Consider `COC(=O)/C(Br)=C/c1c[nH]c2ccc(Br)cc12`, for which the GI50 is 12.2 µM in [1]; 18.4 µM in assay [2]; 15.6 µM in assay [3]; 12.4 µM in assay [4]; 13 µM in assay [5]; 17.6 µM in assay [6]. Also, the GI50 in assay [7] was 12.5 µM; in assay [8], 13.2 µM; in [9] it was 11.1 µM. For the same compound, the TGI was determined as 25.3 µM in assay [1]; 43.3 µM in [2]; 60.3 µM in assay [3]; 26.7 µM in assay [4]; 35.9 µM in [5]; 36.9 µM in [6]. Besides, the TGI in assay [7] worked out at 25.1 µM; in assay [8] it was 25.9 µM; in assay [9] it was 24.5 µM.

`COC(C(=O)[C@@H](O)[C@@H](C)O)[C@@H]1Cc2cc3cc(O[C@H]4C[C@@H](O[C@H]5C[C@@H](O)[C@H](O)C(C)O5)[C@H](O)C(C)O4)c(C)c(O)c3c(O)c2C(=O)[C@H]1O[C@H]1C[C@@H](O[C@H]2C[C@@H](O[C@H]3C[C@@H](O)[C@@H](O)C(C)O3)[C@@H](O)C(C)O2)[C@H](O)C(C)O1` (some centres not stated): the GI50 is 0.27 µM in assay [1]; 0.265 µM in [2]; 0.207 µM in assay [3]; 0.0564 µM in [4]; 0.305 µM in assay [5]; 0.104 µM in [6]. The GI50 in assay [8] is 0.61 µM; in assay [9] it was 0.106 µM. The TGI was 2.99 µM in assay [1]; above 32.5 µM in assay [2]; above 32.5 µM in assay [3]; 0.283 µM in [4]; above 32.5 µM in [5]; above 32.5 µM in [6]. Further, the TGI in [8] and in assay [9] was above 32.5 µM each time.

Consider `Cn1cc(-c2nc(-c3cn(C)c4ncccc34)cs2)c2cc(F)ccc21`, for which the GI50 in assay [1] is 0.237 µM; in assay [2] it was 3.63 µM; in assay [3], 3.38 µM; in [4] it was 1.33 µM; in assay [5] it was 2.57 µM; in assay [6], 1.12 µM. Further, the GI50 in [7] is 1.44 µM; in assay [8] it was 2.79 µM; in assay [9], 0.648 µM. Further, the TGI in assay [1] is 0.713 µM; in assay [2], above 100 µM; in assay [3], 47.2 µM; in assay [4], above 100 µM; in assay [5], 12.8 µM; in assay [6] it was 18.9 µM. Besides, the TGI stood at 7.49 µM in assay [7], 21.9 µM in assay [8] and 23.2 µM in assay [9].

For the compound `Cc1ccc(C2CC(c3cccc(Nc4ccncc4)c3)=NN2c2ccc(Cl)cc2)cc1` (configuration not stated), the GI50 in [1] is 1.6 µM; in [2], 1.66 µM; in assay [4], 1.72 µM; in assay [5] it was 1.71 µM; in assay [10], 1.72 µM; in assay [6] it was 1.72 µM. Besides, the GI50 in assay [7] is 1.73 µM; in [8], 1.8 µM. Also, the TGI in assay [1] worked out at 2.97 µM; in assay [2], 3.13 µM; in assay [4], 3.14 µM; in assay [5], 3.16 µM; in [10], 3.24 µM; in assay [6], 3.34 µM. Further, the values for the TGI in assay [7] and in [8] were 3.6 µM and 3.21 µM, respectively.

Turning to `O=C(Nc1ncc(Cc2ccc(Cl)cc2)s1)c1ccc2c(c1)OCCO2`, the GI50 in assay [1] was 0.0197 µM; in [2], 0.155 µM; in [3], 0.786 µM; in assay [4] it was 0.0543 µM; in [5] it was 0.0728 µM; in [10], 0.126 µM. Moreover, the GI50 in assay [6] was 0.0404 µM; in assay [7], 0.0492 µM; in assay [8], 0.05 µM. Besides, the TGI was 0.0459 µM in assay [1]; above 100 µM in assay [2]; above 100 µM in assay [3]; above 100 µM in assay [4]; above 100 µM in assay [5]; above 100 µM in [10]. For the same compound, the TGI in assay [6] amounted to 38.7 µM; in [7], 1.19 µM; in [8] it was 9.38 µM.

As to `COc1ccc2c(c1)CC[C@@H]1[C@@H]2CC[C@]2(C)c3c(cc(C(=O)c4ccccc4)c4sccc34)C[C@@H]12`, the GI50 in [1], in assay [2], in assay [3], in assay [4], in assay [5] and in [10] was above 100 µM throughout. The GI50 in assay [6], in assay [7] and in assay [8] was above 100 µM in each case. The TGI in assay [1], in assay [2], in assay [3], in assay [4], in [5] and in [10] was above 100 µM throughout. The TGI in [6], in assay [7] and in assay [8] was above 100 µM each time.

For `Clc1cccc(Cc2cn3cc(-c4ccccc4)nc3s2)c1`, the GI50 in assay [1] was 3.48 µM; in assay [2] it was 7.41 µM; in [3] it was 12.8 µM; in assay [4], 0.323 µM; in assay [5], 26.7 µM; in assay [10], 5.36 µM. The GI50 in assay [6] is 3.31 µM; in assay [8], 17.7 µM; in assay [9] it was 2.33 µM. The TGI in [1] was above 100 µM; in assay [2], above 100 µM; in assay [3], above 100 µM; in assay [4] it was 1.97 µM; in assay [5] it was above 100 µM; in assay [10] it was above 100 µM. The TGI in assay [6], in [8] and in [9] was above 100 µM each time.

Regarding `C#Cc1ccc(-n2c(/C=C/c3ccc4ccccc4n3)nc3ncccc3c2=O)cc1`, the GI50 was 0.469 µM in [2]; 0.488 µM in assay [3]; 0.394 µM in [4]; 0.575 µM in assay [5]; 0.428 µM in assay [10]; 0.776 µM in assay [6]. Further, the GI50 in assay [7] is 0.3 µM; in assay [9] it was 0.366 µM. Besides, the TGI in [2] was determined as 2.03 µM; in assay [3] it was 2.33 µM; in assay [4], 1.75 µM; in assay [5], 2.24 µM; in assay [10], 1.58 µM; in assay [6] it was 2.91 µM. For the same compound, the TGI worked out at 0.734 µM in [7] and 1.28 µM in [9].
